Data from patent publication US20240158418A1 (C4 Therapeutics, Inc., priority 2021, published 2024).
Read-outs that look alike come from different tables or passages of the source.

Columns and labels:
Format in all cases: cell-based
[1] = biological target: T1, EGFR L858R-T790M (Homo sapiens, UniProt P00533, L858R/T790M); test: EGFR degradation, Total EGFR (L858R-specific) HTRF, NCI-H1975; details: NCI-H1975 cells, 6 hours, Total EGFR HTRF, read-out: H1975 EGFR DC50
T1 construct: NCI-H1975 (harboring EGFR heterozygous L858R-T790M mutations); host or cells: NCI-H1975
T1 sequence (P00533 25-1210 T790M/L858R): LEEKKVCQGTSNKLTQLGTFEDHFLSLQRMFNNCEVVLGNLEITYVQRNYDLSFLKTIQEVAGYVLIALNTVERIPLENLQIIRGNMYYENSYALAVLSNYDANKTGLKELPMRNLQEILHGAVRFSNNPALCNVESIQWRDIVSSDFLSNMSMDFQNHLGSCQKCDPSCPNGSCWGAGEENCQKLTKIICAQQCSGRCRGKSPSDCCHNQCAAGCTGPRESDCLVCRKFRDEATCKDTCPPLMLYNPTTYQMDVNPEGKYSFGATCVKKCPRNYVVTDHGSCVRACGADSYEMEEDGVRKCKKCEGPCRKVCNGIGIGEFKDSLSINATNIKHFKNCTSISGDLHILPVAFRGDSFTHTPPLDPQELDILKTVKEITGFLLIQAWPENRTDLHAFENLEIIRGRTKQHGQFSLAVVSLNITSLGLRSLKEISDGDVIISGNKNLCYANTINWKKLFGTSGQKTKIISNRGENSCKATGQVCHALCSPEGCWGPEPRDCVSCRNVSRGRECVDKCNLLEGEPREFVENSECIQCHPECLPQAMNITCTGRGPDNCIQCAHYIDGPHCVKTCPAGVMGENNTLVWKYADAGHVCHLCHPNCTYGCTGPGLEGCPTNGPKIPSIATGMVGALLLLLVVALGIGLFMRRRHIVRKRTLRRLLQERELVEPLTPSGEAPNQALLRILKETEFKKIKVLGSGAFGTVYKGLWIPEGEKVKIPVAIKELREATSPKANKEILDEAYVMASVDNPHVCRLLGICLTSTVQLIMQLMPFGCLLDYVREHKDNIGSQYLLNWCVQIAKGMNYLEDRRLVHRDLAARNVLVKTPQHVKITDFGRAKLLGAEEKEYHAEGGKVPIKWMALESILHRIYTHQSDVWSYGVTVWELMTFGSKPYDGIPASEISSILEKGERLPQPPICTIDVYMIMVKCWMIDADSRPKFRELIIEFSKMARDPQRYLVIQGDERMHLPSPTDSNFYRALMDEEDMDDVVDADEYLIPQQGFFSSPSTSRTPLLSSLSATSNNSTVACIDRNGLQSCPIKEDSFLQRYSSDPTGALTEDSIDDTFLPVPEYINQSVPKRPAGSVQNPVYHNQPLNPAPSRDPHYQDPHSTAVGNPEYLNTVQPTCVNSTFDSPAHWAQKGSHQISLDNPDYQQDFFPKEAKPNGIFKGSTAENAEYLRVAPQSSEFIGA
How it was run: (§1)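 HTRF read-outs: pY1068 phospho-EGFR for IC50; total EGFR (pan-EGFR in A431, L858R-specific in mutant lines) for DC50. Compounds were titrated 11 points, half-log, from 10 μM in duplicate onto cells in 10% FBS RPMI, incubated 6 h at 37°C.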

[2] = biological target: T2, EGFR L858R-T790M-C797S (Homo sapiens, UniProt P00533, C797S/L858R/T790M); test: EGFR degradation, Total EGFR (L858R-specific) HTRF, NCI-H1975+CS; details: 6 hours, Total EGFR HTRF
T2 construct: generated using CRISPR technology to introduce the additional C797S mutation by Horizon Discovery; host or cells: NCI-H1975+CS (CRISPR knock-in of C797S)
T2 sequence (P00533 25-1210 T790M/C797S/L858R): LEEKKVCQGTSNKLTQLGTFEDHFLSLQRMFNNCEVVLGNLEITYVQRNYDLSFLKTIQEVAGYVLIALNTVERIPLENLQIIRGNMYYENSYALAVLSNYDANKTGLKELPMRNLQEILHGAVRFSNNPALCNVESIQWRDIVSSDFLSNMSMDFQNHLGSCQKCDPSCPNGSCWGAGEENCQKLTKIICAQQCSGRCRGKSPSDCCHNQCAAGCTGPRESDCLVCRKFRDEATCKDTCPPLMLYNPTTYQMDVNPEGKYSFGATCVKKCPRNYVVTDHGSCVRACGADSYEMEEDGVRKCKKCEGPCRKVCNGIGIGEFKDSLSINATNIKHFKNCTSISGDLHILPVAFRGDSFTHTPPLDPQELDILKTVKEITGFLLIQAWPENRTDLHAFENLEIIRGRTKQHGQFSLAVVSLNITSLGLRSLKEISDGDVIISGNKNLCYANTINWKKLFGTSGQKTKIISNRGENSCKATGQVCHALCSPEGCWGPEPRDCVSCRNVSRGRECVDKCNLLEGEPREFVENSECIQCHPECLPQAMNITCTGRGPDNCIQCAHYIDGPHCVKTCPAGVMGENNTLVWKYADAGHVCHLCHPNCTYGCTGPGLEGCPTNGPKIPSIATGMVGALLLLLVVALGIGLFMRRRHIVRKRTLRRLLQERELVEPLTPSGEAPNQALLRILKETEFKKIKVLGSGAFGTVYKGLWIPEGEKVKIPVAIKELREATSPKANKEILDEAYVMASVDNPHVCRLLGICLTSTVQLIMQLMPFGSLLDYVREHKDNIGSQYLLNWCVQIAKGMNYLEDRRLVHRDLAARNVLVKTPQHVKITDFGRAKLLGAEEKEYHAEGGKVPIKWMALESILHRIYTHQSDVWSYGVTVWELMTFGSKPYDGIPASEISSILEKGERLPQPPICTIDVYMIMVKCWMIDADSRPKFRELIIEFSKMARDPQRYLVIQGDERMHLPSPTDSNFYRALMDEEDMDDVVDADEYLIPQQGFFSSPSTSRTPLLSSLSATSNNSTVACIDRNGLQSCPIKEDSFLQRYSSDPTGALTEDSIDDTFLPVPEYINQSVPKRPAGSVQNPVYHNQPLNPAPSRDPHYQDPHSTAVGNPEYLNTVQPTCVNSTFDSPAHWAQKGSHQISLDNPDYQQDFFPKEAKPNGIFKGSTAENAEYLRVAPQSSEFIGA
From the text: NCI-H1975 (harboring EGFR heterozygous L858R-T790M mutations) and NCI-H3255 (harboring EGFR heterozygous L858R mutation) were purchased from ATCC and NCI, respectively. NCI-H1975+CS (harboring EGFR heterozygous L858R-T790M-C797S mutations) was generated using CRISPR technology to introduce the additional C797S mutation by Horizon Discovery. A431 (harboring EGFR wildtype) was purchased from ATCC. RPMI 1640 no-phenol red medium and fetal bovine serum (FBS) were purchased from Gibco (Grand Island, NY, USA). Cell culture flasks and 384-well microplates were acquired from VWR (Radnor, PA, USA). Phosphorylated (pY1068) EGFR and Total EGFR (using L858R-specific detection antibody and pan-EGFR antibody for EGFR mutant cell lines and EGFR wild-type cell lines, respectively) HTRF assay kits were purchased from Cisbio (Bedford, MA, USA).
Degradation of EGFR protein containing L858R mutation or wild-type was determined based on quantification of FRET signal using a Total EGFR (L858R-specific or pan-EGFR detecting) HTRF assay kit. Phospho-EGFR (pEGFR) inhibition was determined based on quantification of FRET signal using a pY1068 EGFR HTRF assay kit. In separate assay plates, test compounds were added to the 384-well plate from a top concentration of 10 μM with 11 points, half log titration in duplicates. For each assay, 12.5 uL of cells suspended in assay media (RPMI 1640 no-phenol red medium+10% FBS) at cell densities indicated for each cell line in Table 8 below were dispensed using a multi-channel pipette to 384-well low volume white HTRF microplates containing a duplicate concentration range of test compounds and DMSO controls. The plates were kept at 37° C. with 5% CO2 for 6 hours and then incubated with either phospho EGFR or Total EGFR HTRF detection antibodies according to the cell line and EGFR mutant being assayed. Cells treated in the absence of the test compound were the negative control. Positive control was set by wells containing all reagents but no cells. FRET signal was acquired on EnVision™ Multilabel Reader (PerkinElmer, Santa Clara, CA, USA). Compound concentration that achieves 50% degradation and inhibition was reported as DC50 and IC50, respectively.

[3] = biological target: EGFR L858R (Homo sapiens, UniProt P00533, L858R); test: EGFR degradation, Total EGFR (L858R-specific) HTRF, NCI-H3255; parameters: NCI-H3255 (harboring EGFR heterozygous L858R mutation); host or cells: NCI-H3255; details: Table 9A; NCI-H3255 cells, 6 hours, Total EGFR HTRF; read-out: H3255 EGFR DC50
Sequence of EGFR L858R (P00533 25-1210 L858R): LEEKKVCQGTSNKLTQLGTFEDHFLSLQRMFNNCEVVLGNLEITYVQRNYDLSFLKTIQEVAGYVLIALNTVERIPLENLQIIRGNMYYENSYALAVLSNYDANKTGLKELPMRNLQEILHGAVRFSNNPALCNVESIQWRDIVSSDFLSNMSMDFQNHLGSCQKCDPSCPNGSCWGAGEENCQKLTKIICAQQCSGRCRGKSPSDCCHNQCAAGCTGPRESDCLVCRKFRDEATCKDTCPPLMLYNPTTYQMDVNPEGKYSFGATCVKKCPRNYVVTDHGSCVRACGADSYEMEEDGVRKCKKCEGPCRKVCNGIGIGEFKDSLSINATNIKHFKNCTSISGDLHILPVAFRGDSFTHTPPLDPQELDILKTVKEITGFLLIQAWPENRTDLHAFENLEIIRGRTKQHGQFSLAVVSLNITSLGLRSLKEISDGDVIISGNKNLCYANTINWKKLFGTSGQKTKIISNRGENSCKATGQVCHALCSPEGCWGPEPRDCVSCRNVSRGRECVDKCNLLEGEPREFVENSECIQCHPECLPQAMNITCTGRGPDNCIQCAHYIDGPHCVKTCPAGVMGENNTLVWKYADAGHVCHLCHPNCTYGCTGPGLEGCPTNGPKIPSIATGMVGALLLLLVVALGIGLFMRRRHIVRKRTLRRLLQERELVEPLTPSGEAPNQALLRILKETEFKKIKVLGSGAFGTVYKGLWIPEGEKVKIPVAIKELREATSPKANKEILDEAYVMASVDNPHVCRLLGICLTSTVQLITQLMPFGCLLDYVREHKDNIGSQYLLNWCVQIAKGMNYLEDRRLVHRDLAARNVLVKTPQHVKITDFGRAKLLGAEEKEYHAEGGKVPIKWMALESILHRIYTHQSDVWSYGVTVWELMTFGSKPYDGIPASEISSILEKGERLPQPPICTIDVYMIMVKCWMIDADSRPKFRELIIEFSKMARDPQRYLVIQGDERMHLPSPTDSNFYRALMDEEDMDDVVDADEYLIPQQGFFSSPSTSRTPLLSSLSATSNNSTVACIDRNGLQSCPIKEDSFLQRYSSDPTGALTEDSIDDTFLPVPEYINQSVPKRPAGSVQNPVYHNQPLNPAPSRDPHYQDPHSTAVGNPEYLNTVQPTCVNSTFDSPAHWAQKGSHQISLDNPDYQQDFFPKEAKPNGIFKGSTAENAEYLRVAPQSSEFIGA
How it was run: as §1

[4] = Table 9A, NCI-H1975+CS cells, read-out: H1975+ CS EGFR DC50
[5] = Table 9B, NCI-H1975 C797S clone, read-out: H1975 C797S clone EGFR DC50

| SMILES | DC50 ([1]; Table 9A) [nM] | DC50 [2, 4] [nM] | DC50 [3] [nM] | DC50 ([1]; Table 9B) [nM] | DC50 [2, 5] [nM] |
| --- | --- | --- | --- | --- | --- |
| O=C1CC[C@@H](Nc2ccc(C3CCN(CC(=O)N4CCC(Oc5ccc(-c6cc(F)c7c(c6)C(=O)N(C(C(=O)Nc6nccs6)c6ncn8c6CCC8)C7)cc5)CC4)CC3)cc2)C(=O)N1 (stereo partly drawn) [Compound 33, 2-(6,7-dihydro-5H-pyrrolo[1,2-c]imidazol-1-yl)-2-[6-[4-[[1-[2-[4-[4-[[(3R)-2,6-dioxo-3-piperidyl]amino]phenyl]-1-piperidyl]acetyl]-4-piperidyl]oxy]phenyl]-4-fluoro-1-oxo-isoindolin-2-yl]-N-thiazol-2-yl-acetamide] | < 50 | < 50 | < 50 | – | – |
| O=C1CC[C@H](Nc2ccc(C3CCN(CC(=O)N4CCC(Oc5ccc(-c6cc(F)c7c(c6)C(=O)N(C(C(=O)Nc6nccs6)c6ncn8c6CCC8)C7)cc5)CC4)CC3)cc2)C(=O)N1 (stereo partly drawn) [Compound 32, 2-(6,7-dihydro-5H-pyrrolo[1,2-c]imidazol-1-yl)-2-[6-[4-[[1-[2-[4-[4-[[(3S)-2,6-dioxo-3-piperidyl]amino]phenyl]-1-piperidyl]acetyl]-4-piperidyl]oxy]phenyl]-4-fluoro-1-oxo-isoindolin-2-yl]-N-thiazol-2-yl-acetamide] | < 50 | < 50 | < 50 | – | – |
| O=C1CCC(Nc2ccc(N3CCC(O)(CC(=O)N4CC5(C4)CN(c4ccc(-c6cc(F)c7c(c6)C(=O)N(C(C(=O)Nc6ccccn6)c6ncn8c6CCC8)C7)cc4)C5)CC3)c(F)c2)C(=O)N1 (stereo not shown) [Compound 99, 2-(6,7-dihydro-5H-pyrrolo[1,2-c]imidazol-1-yl)-2-[6-[4-[2-[2-[1-[4-[(2,6-dioxo-3-piperidyl)amino]-2-fluoro-phenyl]-4-hydroxy-4-piperidyl]acetyl]-2,6-diazaspiro[3.3]heptan-6-yl]phenyl]-4-fluoro-1-oxo-isoindolin-2-yl]-N-(2-pyridyl)acetamide] | – | – | – | < 50 | < 50 |
| Cn1nc(N2CCC(=O)NC2=O)c2ccc(N3CCN(CC(=O)N4CCN(c5ccc(-c6cc(F)c7c(c6)C(=O)N(C(C(=O)Nc6nccs6)c6ncn8c6CCC8)C7)cc5)CC4)CC3)cc21 (stereo not shown) [Compound 92, 2-(6,7-dihydro-5H-pyrrolo[1,2-c]imidazol-1-yl)-2-(6-(4-(4-(2-(4-(3-(2,4-dioxotetrahydropyrimidin-1(2H)-yl)-1-methyl-1H-indazol-6-yl)piperazin-1-yl)acetyl)piperazin-1-yl)phenyl)-4-fluoro-1-oxoisoindolin-2-yl)-N-(thiazol-2-yl)acetamide] | – | – | – | < 50 | < 50 |
| O=C1CCC(Nc2ccc(N3CCC(O)(CC(=O)N4CCC(NC(=O)c5ccc(C#Cc6cc(F)c7c(c6)C(=O)N(C(C(=O)Nc6nccs6)c6ncn8c6CCC8)C7)cn5)CC4)CC3)c(F)c2)C(=O)N1 (stereo not shown) [Compound 96, 5-((2-(1-(6,7-dihydro-5H-pyrrolo[1,2-c]imidazol-1-yl)-2-oxo-2-(thiazol-2-ylamino)ethyl)-7-fluoro-3-oxoisoindolin-5-yl)ethynyl)-N-(1-(2-(1-(4-((2,6-dioxopiperidin-3-yl)amino)-2-fluorophenyl)-4-hydroxypiperidin-4-yl)acetyl)piperidin-4-yl)picolinamide] | – | – | – | < 50 | < 50 |
| Cn1nc(N2CCC(=O)NC2=O)c2ccc(C3CCN(CC(=O)N4CC5(C4)CN(c4ccc(-c6ccc7cn(C(C(=O)Nc8nccs8)c8ncn9c8CCC9)nc7c6F)cn4)C5)CC3(F)F)cc21 (stereo not shown) [Compound 70, 2-(6,7-dihydro-5H-pyrrolo[1,2-c]imidazol-1-yl)-2-[6-[6-[2-[2-[4-[3-(2,4-dioxohexahydropyrimidin-1-yl)-1-methyl-indazol-6-yl]-3,3-difluoro-1-piperidyl]acetyl]-2,6-diazaspiro[3.3]heptan-6-yl]-3-pyridyl]-7-fluoro-indazol-2-yl]-N-thiazol-2-yl-acetamide] | – | – | – | < 50 | < 50 |
| Cn1nc(N2CCC(=O)NC2=O)c2ccc(C3CCN(CC(=O)N4CCCN(c5ccc(-c6cc(F)c7c(c6)C(=O)N(C(C(=O)Nc6nccs6)c6ncn8c6CCC8)C7)cc5)CC4)CC3(F)F)cc21 (stereo not shown) [Compound 91, 2-(6,7-dihydro-5H-pyrrolo[1,2-c]imidazol-1-yl)-2-(6-(4-(4-(2-(4-(3-(2,4-dioxotetrahydropyrimidin-1(2H)-yl)-1-methyl-1H-indazol-6-yl)-3,3-difluoropiperidin-1-yl)acetyl)-1,4-diazepan-1-yl)phenyl)-4-fluoro-1-oxoisoindolin-2-yl)-N-(thiazol-2-yl)acetamide] | – | – | – | < 50 | 50 to 150 |
| O=C1CC[C@H](Nc2ccc(C3CCN(CC(=O)N4CC5(C4)CN(c4ccc(-c6ccc7cn(C(C(=O)Nc8nccs8)c8ncn9c8CCC9)nc7c6F)cn4)C5)CC3)c(F)c2)C(=O)N1 (stereo partly drawn) [Compound 69, 2-(6,7-dihydro-5H-pyrrolo[1,2-c]imidazol-1-yl)-2-[6-[6-[2-[2-[4-[4-[[(3S)-2,6-dioxo-3-piperidyl]amino]-2-fluoro-phenyl]-1-piperidyl]acetyl]-2,6-diazaspiro[3.3]heptan-6-yl]-3-pyridyl]-7-fluoro-indazol-2-yl]-N-thiazol-2-yl-acetamide] | – | – | – | < 50 | < 50 |

Further lines, results first:

| DC50 ([1]; Table 9A) [nM] | DC50 [2, 4] [nM] | DC50 [3] [nM] | DC50 ([1]; Table 9B) [nM] | DC50 [2, 5] [nM] | SMILES |
| --- | --- | --- | --- | --- | --- |
| < 50 | < 50 | < 50 | – | – | O=C1CCC(Nc2ccc(C3CCN(CC(=O)N4CCC(Oc5ccc(-c6cc(F)c7c(c6)C(=O)N(C(C(=O)Nc6nccs6)c6ncn8c6CCC8)C7)cc5)CC4)CC3)c(F)c2)C(=O)N1 (stereo not shown) [Compound 35, 2-(6,7-dihydro-5H-pyrrolo[1,2-c]imidazol-1-yl)-2-(6-(4-((1-(2-(4-(4-((2,6-dioxopiperidin-3-yl)amino)-2-fluorophenyl)piperidin-1-yl)acetyl)piperidin-4-yl)oxy)phenyl)-4-fluoro-1-oxoisoindolin-2-yl)-N-(thiazol-2-yl)acetamide] |
| 50 to 150 | < 50 | < 50 | – | – | O=C1CCC(Nc2ccc(C3CCN(CC(=O)N4CCN(c5ccc(-c6cc(F)c7c(c6)C(=O)N(C(C(=O)Nc6ccccn6)c6ncn8c6CCC8)C7)cc5)CC4)CC3)cc2)C(=O)N1 (stereo not shown) [Compound 19, 2-(6,7-dihydro-5H-pyrrolo[1,2-c]imidazol-1-yl)-2-(6-(4-(4-(2-(4-(4-((2,6-dioxopiperidin-3-yl)amino)phenyl)piperidin-1-yl)acetyl)piperazin-1-yl)phenyl)-4-fluoro-1-oxoisoindolin-2-yl)-N-(pyridin-2-yl)acetamide] |
| – | – | – | < 50 | < 50 | Cn1nc(N2CCC(=O)NC2=O)c2ccc(C3CCN(CC(=O)N4CCC(NC(=O)c5ccc(C#Cc6cc(F)c7c(c6)C(=O)N(C(C(=O)Nc6nccs6)c6ncn8c6CCC8)C7)cn5)CC4)CC3(F)F)cc21 (stereo not shown) [Compound 88, 5-[2-[2-[1-(6,7-dihydro-5H-pyrrolo[1,2-c]imidazol-1-yl)-2-oxo-2-(thiazol-2-ylamino)ethyl]-7-fluoro-3-oxo-isoindolin-5-yl]ethynyl]-N-[1-[2-[4-[3-(2,4-dioxohexahydropyrimidin-1-yl)-1-methyl-indazol-6-yl]-3,3-difluoro-1-piperidyl]acetyl]-4-piperidyl]pyridine-2-carboxamide] |
| – | – | – | < 50 | < 50 | Cn1nc(N2CCC(=O)NC2=O)c2ccc(C3CCN(CC(=O)N4CC5(C4)CN(c4ccc(-c6cc(F)c7c(c6)C(=O)N(C(C(=O)Nc6nccs6)c6ncn8c6CCC8)C7)cc4)C5)C4(CC4)C3)cc21 (stereo not shown) [Compound 154, 2-(6,7-dihydro-5H-pyrrolo[1,2-c]imidazol-1-yl)-2-[6-[4-[2-[2-[7-[3-(2,4-dioxohexahydropyrimidin-1-yl)-1-methyl-indazol-6-yl]-4-azaspiro[2.5]octan-4-yl]acetyl]-2,6-diazaspiro[3.3]heptan-6-yl]phenyl]-4-fluoro-1-oxo-isoindolin-2-yl]-N-thiazol-2-yl-acetamide] |
